From patent US6403614B1, “Benzothiophenes” (Eli Lilly and Company, priority 1997, dated 2002)

Legend:
Assay type in all cases: in vivo, Sprague Dawley rats
ovariectomized rats [1] = test: Four Day Ovariectomized Rat Model: Serum Cholesterol Analysis; conditions: OVX rats, orally administered at 0.1 mg/kg/day, four days
Source text: (§1) Estrogenicity: Four Day Ovariectomized Rat Model
(§2) Seventy-five day old female Sprague Dawley rats (weight range of 225 g-275 g) were obtained from Charles River Laboratories (Portage, Mich.). The animals were either bilaterally ovariectomized (OVX) or exposed to a Sham surgical procedure at Charles River Laboratories, and then shipped after one week. Upon arrival, these rats were housed in metal hanging cases in groups of three or four animals per cage, and had ad libitum access to food (Teklad diet, TD 89222, 0.5% calcium, 0.4% phosphorous; Madison, Wis.) and water. Room temperature was maintained at 22.2° C.±1.7° C. with a minimum relative humidity of 40%. The photoperiod in the room was twelve hours light and twelve hours dark. […]
(§3) After a one-week acclimation period (two weeks post-OVX), daily dosing with test compound and 17α-ethynylestradiol was initiated. […] The animals were then sacrificed by asphyxiation with CO2, the uterus was removed through a midline incision, and a wet uterine weight was determined.
The blood samples, collected as described above, were allowed to clot at room temperature for two hours, and serum was obtained following centrifugation for ten minutes at 3000 rpm. Serum cholesterol was determined using a high-performance cholesterol assay (Boehringer Mannheim Diagnostics, Indianapolis, Ind.). […] Cholesterol concentration was then calculated against a standard curve.

ovariectomized rats [2] = test: Four Day Ovariectomized Rat Model: wet uterine weight; conditions: OVX rats, orally administered at 0.1 mg/kg/day, four days, versus untreated ovariectomized animals
Source text: as §1
Seventy-five day old female Sprague Dawley rats (weight range of 225 g-275 g) were obtained from Charles River Laboratories (Portage, Mich.). The animals were either bilaterally ovariectomized (OVX) or exposed to a Sham surgical procedure at Charles River Laboratories, and then shipped after one week. Upon arrival, these rats were housed in metal hanging cases in groups of three or four animals per cage, and had ad libitum access to food (Teklad diet, TD 89222, 0.5% calcium, 0.4% phosphorous; Madison, Wis.) and water. Room temperature was maintained at 22.2° C.±1.7° C. with a minimum relative humidity of 40%. The photoperiod in the room was twelve hours light and twelve hours dark. Comparative data were obtained between untreated ovariectomized rats, ovariectomized rats treated with 17α-ethynylestradiol (EE2), and ovariectomized rats treated with representative compounds of the present invention.
as §3, with “initiated. The test compounds or 17α-ethynylestradiol (Sigma Chemical Co., St. Louis, Mo.) were given orally, unless otherwise stated, as a suspension in 20% cyclodextrin (CDX).” for “initiated.”

ovariectomized rats [3] = test: Four Day Ovariectomized Rat Model: Uterine Eosinophil Peroxidase (EPO) Assay; conditions: OVX rats, oral daily for four days
Source text: as §1, §2, §3
Uteri were kept at 4° C. until time of enzymatic analysis. […] Upon addition of 0.01% hydrogen peroxide and […] o-phenylenediamine (final concentrations) in Tris buffer, the increase in absorbance was monitored for one minute at 450 nm. […] The maximal velocity of a fifteen second interval was determined over the initial, linear portion of the reaction curve.

ovariectomized rats [4] = test: Bone Sparing: Five Week Ovariectomized Rat Model, femur X-ray Bone Assay; conditions: OVX rats, oral gavage daily for 35 days, dose of 0.01 mg/kg
Source text: Seventy-five day old female Sprague Dawley rats (weight range of 275 g-350 g) were obtained from Charles River Laboratories (Portage, Mich.). The animals were either bilaterally ovariectomized (OVX) or exposed to a Sham surgical procedure at Charles River Laboratories, and then shipped the day following surgery. Upon arrival, these rats were housed in metal hanging cases in groups of three or four animals per cage, and had ad libitum access to food (Teklad diet, TD 89222, 0.5% calcium, 0.4% phosphorous; Madison, Wis.) and water. Room temperature was maintained at 22.2° C.±1.7° C. with a minimum relative humidity of 40%. The photoperiod in the room was twelve hours light and twelve hours dark. Test compound preparation was the same as that described in the Estrogenicty assay above. After a one day acclimation period (two days post-OVX), dosing with test compounds was initiated. Oral gavages 20% CDX, representative compound of the invention (0.01 to 10 mg/kg), or 17α-ethynylestradiol (100 μg/kg) were delivered daily for 35 consecutive days. On the evening following the final dose, the animals were fasted. The next morning the animals were aneshetized with a mixture of Ketaset® and Rompun® (67 and 6.7 mg/kg respectively). […] Quantitation was achieved by measuring the total number of pixels in a standard region of interest proximal to the growth plate, over a gray scale range of zero to 60.

| SMILES | serum cholesterol (ovariectomized rats [1]) | uterine weight (ovariectomized rats [2]) | eosinophil infiltration (uterine EPO) (ovariectomized rats [3]) | protection of the femur from bone loss (X-ray evaluation) (ovariectomized rats [4]) [%] |
| --- | --- | --- | --- | --- |
| C#C[C@]1(O)CC[C@H]2[C@@H]3CCc4cc(O)ccc4[C@H]3CC[C@@]21C [EE2, 17α-ethynylestradiol] | caused a decrease in serum cholesterol | substantially greater than the uterine weight of untreated ovariectomized test animals | substantial, expected increase in eosinophil infiltration | – |
| CCOCOc1ccc(-c2sc3cc(OCOCC)ccc3c2C(=O)c2ccc(OCCN3CCCCC3)cc2)cc1 [Example 3, 2-(4-[Ethoxymethoxy]phenyl)-3-(4-[(2-Piperidin-1-yl)ethoxy]benzoyl)-6-Ethoxymethoxybenzo[b]thiophene] | – | – | – | 9.1 |
